{
  "source": "patent US8853359B2",
  "about": "“Endokinin C/D-derived peptides” (University of Miyazaki, priority 2009, dated 2014)",
  "key": {"[1]": {"system": "carrageenan-induced inflammation", "assay": "carrageenan-induced increase in paw size after subcutaneous pre-administration of peptide to plantar", "type": "in vivo, rat", "settings": "10^-3M (100 nmol/100 μl) subcutaneous to plantar", "procedure": "100 μl of saline, 10^−3M (100 nmol/100 μl) D-EKC/D (3), or 10^−3M (100 nmol/100 μl) Spantide II (N^6-[(3-pyridinyl)carbonyl]-D-Lys-L-Pro-3-(3-pyridinyl)-L-Ala-L-Pro-3,4-dichloro-D-Phe-L-Asn-D-Trp-L-Phe-D-Trp-L-Leu-L-Nle-NH2) (SEQ ID NO: 21) was subcutaneously administered to rat plantar. Four (4) hours later, 100 μl (2 mg/100 μl) of 2% carrageenan was subcutaneously administered to rat plantar. Paw size was measured every 10 minutes for 60 minutes after carrageenan administration. The paw size (control) before carrageenan administration was designated as the basal level and increases in paw size were then calculated.\nProcedures similar to those in Experiment B were performed, except for administration of carrageenan at 8 hours after administration of saline, D-EKC/D (3), or Spantide II.\nProcedures similar to those in Experiment B were performed except that the test with Spantide II was not conducted and carrageenan was administered at 14 hours after administration of saline or D-EKC/D (3)."}, "[2]": {"system": "carrageenan-induced thermal hyperalgesia", "assay": "withdrawal latency to noxious thermal stimulation after carrageenan, intrathecal pre-administration of peptide", "type": "in vivo, rat", "settings": "10^-3M (10 nmol/10 μl) peptide intrathecal; 2% carrageenan 4 hours later; FIG. 9B", "procedure": "In Example 6, 10^−3M (10 nmol/10 μl) D-EKC/D (3), (5), or (7), Spantide I, or saline (10 μl) was administered to intrathecally catheterized rats via catheters. Four hours later, 100 μl of 2% carrageenan (2 mg/100 μl) was subcutaneously administered to rat plantar.\nMeanwhile, noxious thermal stimulation was applied to paw plantar using infrared rays at 10-minute intervals after carrageenan administration. The time (latency period) required for withdrawal response to take place was measured. The latency period before untreated rats following noxious thermal stimulation was designated as the control latency period."}},
  "data": [
    {"substance": "Ala-Tyr-Gln-Leu-Glu-His-Thr-Phe-Gln-DTrp-Leu-Leu-NH2 (AYQLEHTFQXLL; HELM PEPTIDE1{A.Y.Q.L.E.H.T.F.Q.[dW].L.L.[am]}$$$$V2.0; N-terminus assumed; SMILES CC(C)C[C@H](NC(=O)[C@H](CC(C)C)NC(=O)[C@@H](Cc1c[nH]c2ccccc12)NC(=O)[C@H](CCC(N)=O)NC(=O)[C@H](Cc1ccccc1)NC(=O)[C@@H](NC(=O)[C@H](Cc1c[nH]cn1)NC(=O)[C@H](CCC(=O)O)NC(=O)[C@H](CC(C)C)NC(=O)[C@H](CCC(N)=O)NC(=O)[C@H](Cc1ccc(O)cc1)NC(=O)[C@H](C)N)[C@@H](C)O)C(N)=O) [D-EKC/D (3)]", "values": [
      {"measurement": "increases in paw size accompanying carrageenan-induced inflammation", "setting": "[1]; carrageenan 4 hours later, FIG. 10B", "value": "suppressed increases in paw size accompanying carrageenan-induced inflammation more significantly than administration of Spantide II"},
      {"measurement": "increases in paw size accompanying carrageenan-induced inflammation", "setting": "[1]; carrageenan 8 hours later, FIG. 10C", "value": "suppressed increases in paw size"},
      {"measurement": "increases in paw size accompanying carrageenan-induced inflammation", "setting": "[1]; carrageenan 14 hours later, FIG. 10D", "value": "suppressed increases in paw size"},
      {"measurement": "withdrawal time (latency period)", "setting": "[2]", "value": "significant increases"}
    ]}
  ]
}
